Test results as given in patent US6787132B1, “Combined chemo-immunotherapy with liposomal drugs and cytokines” (Yissum Research Development Company of the Hebrew …, priority 1997, dated 2004).

Key:
Assay type in all cases: in vivo, BALB/c mice
[1] = tested on: M109 tumor cells (lung adenocarcinoma); test: Lung adenocarcinoma model: survival of mice injected intraperitoneally with M109 tumor cells, IL-2 in MLV; settings: 5×10^5 M109 cells i.p. day 0, ADR or DOXIL 8 mg/kg i.v. day 7, MLV-IL-2 50,000 CU/mouse i.p. days 10, 13, 16
Description: B1. Lung Adenocarcinoma Model: IL-2 in MLV. Six groups of BALB/c mice were injected intraperitoneally with 5×10^5 M109 tumor cells (day 0). Free adriamycin or DOXIL®, respectively, were administered intravenously on day 7 at a dose of 8 mg/kg, and intraperitoneal cytokine treatment was initiated 3 days later. Liposomal IL-2 (formulation B; MLV DMPC/DMPG (9:1 mole ratio) liposomes containing IL-2) was given once daily (50,000 CU/mouse) on days 10, 13 and 16. Control groups received no treatment or received the IL-2 treatment alone.
(§1) Each group, consisting of 8-9 mice, was inspected for survival up to 100 days after tumor inoculation.

[2] = tested on: M109 tumor cells (lung adenocarcinoma); test: Metastatic lung adenocarcinoma model: survival of mice injected intravenously with M109 tumor cells, IL-2 in PEGylated SUV; settings: 5×10^5 M109 cells i.v. day 0, ADR or DOXIL 8 mg/kg i.v. day 7, SSL-IL-2 50,000 CU/mouse i.v. days 11, 14, 17
Description: B2. Metastatic Lung Adenocarcinoma Model: IL-2 in MLV (Formulation B) and PEG-Derivatized SUV (SSL). In this experiment, BALB/c mice were injected intravenously with 5×10^5 M109 tumor cells (day 0). Free adriamycin or DOXIL ®, respectively, were administered intravenously on day 7 (8 mg/kg), followed […] by intravenous cytokine treatment. Liposomal IL-2 (Formulation A; PEGylated SUV containing IL-2) was given once daily (50,000 CU/mouse) on days 11, 14 and 17. Control groups received no treatment or received the IL-2 treatment alone.
as §1

[3] = tested on: M109 tumor cells; test: Second, more extensive M109 study: free or liposomal adriamycin with free IL-2, SSL-IL-2 or MLV-IL-2; settings: 5×10^5 M109 cells i.p.; ADR or DOXIL 8 mg/kg i.p. day 7; IL-2 50,000 CU/mouse i.v. days 10, 13, 16; observed up to 120 days
Description: In a second, more extensive study, nine groups of BALB/c mice were injected intraperitoneally with 5×10^5 M109 tumor cells. Free adriamycin or DOXIL® (8 mg/kg) were administered intraperitoneally 7 days later, followed 3 days later by intravenous cytokine treatment. The cytokine, given once daily (50,000 CU/mouse) on days 10, 13 and 16, consisted of free IL-2, IL-2 in Formulation A (Stealth® PEGylated SUV), or IL-2 in Formulation B (9:1 molar DMPC/DMPG MLV).
Each group, consisting of 8 mice, and an untreated control group of 11 mice, were inspected for survival up to 120 days after tumor inoculation.

[4] = tested on: C26 colon carcinoma cells; test: Subcutaneous colon carcinoma model (footpad), IL-2 in MLV; settings: 10^5 C26 cells in footpad, 8 mg/kg free or liposomal adriamycin i.v. day 7, IL-2 i.p.
Description: B3. Subcutaneous colon carcinoma model: IL-2 in MLV. In this test, 7 groups of BALB/c mice were injected in the footpad with 10^5 C26 colon carcinoma cells.

COc1cccc2c1C(=O)c1c(O)c3c(c(O)c1C2=O)C[C@@](O)(C(=O)CO)C[C@@H]3O[C@H]1C[C@H](N)[C@H](O)[C@H](C)O1 [ADR, adriamycin (doxorubicin)]
MEDIAN SURVIVAL ([1]; observed up to 100 days): 42 days
NUMBER OF SURVIVING MICE/TOTAL ([1]; survival up to 100 days): 0/8
MEDIAN SURVIVAL ([2]; observed up to 100 days): 56 days
NUMBER OF SURVIVING MICE/TOTAL ([2]; survival up to 100 days): 2/8
MEDIAN SURVIVAL [3]: 100 days
NUMBER OF TUMOR FREE MICE/TOTAL [3]: 4/8
NUMBER OF TUMOR FREE MICE, DAY 30 ([4]; day 30): 0/7
NUMBER OF TUMOR FREE MICE, DAY 65 ([4]; day 65): 0/7
